Reference: PubChem BioAssay (NCI)
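Test compounds were applied to cells in 96-well plates for 48 hours at 5 doses. TGI: concentration producing complete growth inhibition.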

Tests used:
Test in all cases: NCI tumour cell line growth inhibition, 48 h
786-0 renal = test system: 786-0 renal
A498 renal = test system: A498 renal
A549 NSCLC = test system: A549 NSCLC
ACHN renal = test system: ACHN renal
BT-549 breast = test system: BT-549 breast
CAKI-1 renal = test system: CAKI-1 renal
COLO 205 colon = test system: COLO 205 colon
DU-145 prostate = test system: DU-145 prostate
EKVX NSCLC = test system: EKVX NSCLC
HCT-116 colon = test system: HCT-116 colon
HCT-15 colon = test system: HCT-15 colon
HOP-62 NSCLC = test system: HOP-62 NSCLC
HOP-92 NSCLC = test system: HOP-92 NSCLC
HT29 colon = test system: HT29 colon
IGROV1 ovarian = test system: IGROV1 ovarian
KM12 colon = test system: KM12 colon
LOX IMVI melanoma = test system: LOX IMVI melanoma
M14 melanoma = test system: M14 melanoma
MALME-3M melanoma = test system: MALME-3M melanoma
MDA-MB-231 breast = test system: MDA-MB-231 breast
MDA-MB-435 = test system: MDA-MB-435
MDA-N = test system: MDA-N
MOLT-4 leukemia = test system: MOLT-4 leukemia
NCI-H226 lung = test system: NCI-H226 lung
NCI-H23 lung = test system: NCI-H23 lung
NCI-H460 lung = test system: NCI-H460 lung
NCI-H522 lung = test system: NCI-H522 lung
NCI/ADR-RES ovarian = test system: NCI/ADR-RES ovarian
OVCAR-3 ovarian = test system: OVCAR-3 ovarian
OVCAR-4 ovarian = test system: OVCAR-4 ovarian
OVCAR-5 ovarian = test system: OVCAR-5 ovarian
OVCAR-8 ovarian = test system: OVCAR-8 ovarian
RPMI-8226 leukemia = test system: RPMI-8226 leukemia
RXF 393 renal = test system: RXF 393 renal
SF-268 CNS = test system: SF-268 CNS
SF-295 CNS = test system: SF-295 CNS
SF-539 CNS = test system: SF-539 CNS
SK-MEL-28 melanoma = test system: SK-MEL-28 melanoma
SK-MEL-5 melanoma = test system: SK-MEL-5 melanoma
SK-OV-3 ovarian = test system: SK-OV-3 ovarian
SN12C renal = test system: SN12C renal
SNB-19 CNS = test system: SNB-19 CNS
SNB-75 CNS = test system: SNB-75 CNS
SW-620 colon = test system: SW-620 colon
T-47D breast = test system: T-47D breast
TK-10 renal = test system: TK-10 renal
U251 CNS = test system: U251 CNS
UACC-257 melanoma = test system: UACC-257 melanoma
UO-31 renal = test system: UO-31 renal
CCRF-CEM leukemia = test system: CCRF-CEM leukemia
HCC-2998 colon = test system: HCC-2998 colon
HL-60(TB) leukemia = test system: HL-60(TB) leukemia
HS 578T breast = test system: HS 578T breast
K-562 leukemia = test system: K-562 leukemia
MCF7 breast = test system: MCF7 breast
PC-3 prostate = test system: PC-3 prostate
SK-MEL-2 melanoma = test system: SK-MEL-2 melanoma
UACC-62 melanoma = test system: UACC-62 melanoma

Measured: TGI

Cc1cnc(Cl)nc1C(C#N)c1nc2ccccc2n1C (configuration not stated)
43.4 µM: NCI-H522 lung
69.3 µM: SNB-75 CNS
45.5 µM: U251 CNS
71.3 µM: SF-539 CNS
51.2 µM: HCT-116 colon
57.1 µM: EKVX NSCLC
not listed: CCRF-CEM leukemia | HCC-2998 colon | HL-60(TB) leukemia | HS 578T breast | K-562 leukemia | MCF7 breast | PC-3 prostate | SK-MEL-2 melanoma | UACC-62 melanoma
> 100 µM: all other assays above

CCCCn1cc(C(=O)O)c(=O)c2c3sccc3ccc21
50 µM: UO-31 renal
43.4 µM: NCI/ADR-RES ovarian
> 100 µM: all other assays above
